Tested on: nude-mouse transplanted tumor of human gastric cancer MKN-45
Assay: growth of nude-mouse transplanted tumor of human gastric cancer MKN-45
Details: positive control, 10 mg/kg iv, day 19

## O=c1[nH]cc(F)c(=O)[nH]1 [5-Fu, 5-fluorouracil]
  RTV: 10.60±2.28
  T/C (%): 37.72%
